From ChEMBL document CHEMBL4190291, “Imidazo[1,2-a]pyrazine, Imidazo[1,5-a]quinoxaline and Pyrazolo[1,5-a]quinoxaline derivatives as IKK1 and IKK2 inhibitors” (2017) come the findings set out here.

A word on the inhibition: it is the change of the read-out against control, counted positive when it falls.

Assay [1] deals with T1, Inhibitor of nuclear factor kappa-B kinase subunit alpha (Homo sapiens) (UniProt O15111).
T1 sequence (whole entry): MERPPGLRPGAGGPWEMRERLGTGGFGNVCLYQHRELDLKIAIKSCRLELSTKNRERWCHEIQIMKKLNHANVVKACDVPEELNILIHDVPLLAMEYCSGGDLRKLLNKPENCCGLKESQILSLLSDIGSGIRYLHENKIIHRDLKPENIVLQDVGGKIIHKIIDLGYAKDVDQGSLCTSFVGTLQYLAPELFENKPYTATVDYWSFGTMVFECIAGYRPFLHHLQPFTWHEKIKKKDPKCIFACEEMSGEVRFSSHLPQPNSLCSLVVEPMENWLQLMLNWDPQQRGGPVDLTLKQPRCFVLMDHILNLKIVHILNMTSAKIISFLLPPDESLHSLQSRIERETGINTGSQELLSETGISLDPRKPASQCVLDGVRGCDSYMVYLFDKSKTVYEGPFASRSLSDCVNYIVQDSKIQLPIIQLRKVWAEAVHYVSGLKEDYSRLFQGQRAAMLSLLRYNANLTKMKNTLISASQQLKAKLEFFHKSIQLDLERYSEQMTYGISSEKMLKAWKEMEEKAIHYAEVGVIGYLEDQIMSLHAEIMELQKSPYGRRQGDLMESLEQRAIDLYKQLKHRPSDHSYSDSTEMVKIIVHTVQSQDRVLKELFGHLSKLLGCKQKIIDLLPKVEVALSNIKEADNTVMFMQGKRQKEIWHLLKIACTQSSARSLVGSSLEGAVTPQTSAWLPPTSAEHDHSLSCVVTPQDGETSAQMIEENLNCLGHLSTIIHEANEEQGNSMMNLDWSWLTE
As to the kind of experiment: Inhibition of full length human His-tagged IKK1 expressed in baculovirus expression system at 10 uM by Z'-LYTE assay.

The target of assay [2] is T2, Inhibitor of nuclear factor kappa-B kinase subunit beta (Homo sapiens) (UniProt O14920).
T2 sequence (whole entry): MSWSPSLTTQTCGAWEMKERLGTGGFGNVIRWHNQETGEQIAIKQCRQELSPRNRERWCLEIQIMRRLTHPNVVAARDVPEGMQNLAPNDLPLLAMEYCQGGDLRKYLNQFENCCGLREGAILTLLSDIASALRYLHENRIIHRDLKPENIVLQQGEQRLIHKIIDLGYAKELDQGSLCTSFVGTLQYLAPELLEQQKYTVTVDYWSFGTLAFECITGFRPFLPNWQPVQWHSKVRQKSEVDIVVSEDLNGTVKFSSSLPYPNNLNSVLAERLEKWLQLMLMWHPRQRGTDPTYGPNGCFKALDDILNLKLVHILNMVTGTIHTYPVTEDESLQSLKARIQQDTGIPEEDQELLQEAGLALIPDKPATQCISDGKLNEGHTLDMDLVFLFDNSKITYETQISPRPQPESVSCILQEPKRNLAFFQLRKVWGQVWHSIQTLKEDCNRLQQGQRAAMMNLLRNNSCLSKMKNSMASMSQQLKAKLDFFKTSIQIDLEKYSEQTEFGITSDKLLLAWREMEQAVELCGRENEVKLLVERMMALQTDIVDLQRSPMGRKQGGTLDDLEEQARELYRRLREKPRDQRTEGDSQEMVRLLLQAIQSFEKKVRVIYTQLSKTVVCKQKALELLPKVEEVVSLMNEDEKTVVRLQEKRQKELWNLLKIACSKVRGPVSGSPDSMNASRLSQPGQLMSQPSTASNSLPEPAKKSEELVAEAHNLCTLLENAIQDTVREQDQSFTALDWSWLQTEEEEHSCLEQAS
The assay is described as follows: Inhibition of full length human GST-tagged IKK2 expressed in baculovirus expression system at 10 uM by Z'-LYTE assay.

A further assay relates to THP-1. As to the kind of experiment: Anti-inflammatory activity in human THP1 cells assessed as inhibition of LPS/INFgamma-induced TNFalpha production at 10 uM relative to control. In kind it is functional.

Structures are written as SMILES.

As for `CN(C)c1nc2ccccc2n2nccc12`, the inhibition in assay [1] was -10%; in assay [2], 17%. The matching figures for `CNc1nc2cc(C)ccc2n2ncc(Br)c12`: -6% and 7%. The matching figures for `CNc1nc2ccccc2n2nccc12`: 5% and -2%. The matching figures for `CNc1nc2ccccc2n2c(Br)ncc12`: 0% and 16%. In the case of `Cc1ccc2nc(N(C)C)c3ccnn3c2c1`, in assay [2], the inhibition was determined as 1%.

On to `CNc1nc2ccccc2n2cncc12`, for which the values for the inhibition in assay [1] and in assay [2] were 3% and 1%, respectively. The matching figures for `Nc1nccn2c(-c3ccc(O)c(O)c3)cnc12`: 20% and -8%. On to `CNc1nc2ccccc2n2c(C)cnc12`, for which the inhibition in assay [1] is -3%; in assay [2], 5%. Consider `CNc1nc2ccc(C)cc2n2nccc12`, for which the inhibition was -9% in assay [1] and 19% in assay [2]. Consider `Cc1ccc2nc(NCCN)c3ncc(C)n3c2c1`, for which the inhibition was found to be 8% in assay [1] and 64% in assay [2]. As to `CNc1nccn2c(Br)cnc12`, the inhibition in assay [1] was found to be 5%; in assay [2], 6%. Turning to `CNc1nc2ccc(C)cc2n2c(C)cnc12`, the inhibition at 10 µM in the assay with THP-1 amounted to 45%. For the compound `CNc1nccn2c(-c3ccc(O)c(O)c3)cnc12`, the inhibition in assay [1] turned out to be 5%; in assay [2], 18%. `CNc1nccn2c(C)cnc12`: the inhibition in assay [1] is -1%; in assay [2], -4%. Consider `COc1ccc(-c2cnc3c(N)nccn23)cc1OC`, for which the results for the inhibition in assay [1] and in assay [2] were -2% and -4%, respectively.

As for `Cc1ccc2c(c1)nc(N(C)C)c1ccnn12`, the inhibition in assay [1] is -7%; in assay [2] it was 4%.

As for `CNc1nc2ccc(C)cc2n2c(Br)cnc12`, in the assay on THP-1, the inhibition at 10 µM was found to be 40%. Turning to `CNc1nc2ccccc2n2cnc(Br)c12`, the inhibition in assay [1] was -5%; in assay [2] it was 10%.

On to `CNc1nc2ccccc2n2ncc(Br)c12`, for which the inhibition in assay [1] is 0%; in assay [2] it was 1%.

As to `CNc1nc2ccc(C)cc2n2ncc(Br)c12`, the results for the inhibition in assay [1] and in assay [2] were -10% and -3%, respectively. For the compound `CNc1nc2ccccc2n2c(Br)nc(Br)c12`, the inhibition in assay [1] was -1%. Take `CNc1nccn2c(-c3ccc(OC)c(OC)c3)cnc12`: the inhibition in assay [1] was -9%; in assay [2], -1%.

As for `CNc1nc2cc(C)ccc2n2nccc12`, the inhibition in assay [1] is -4%; in assay [2], 4%. For the compound `Nc1nccn2c(Br)cnc12`, the inhibition in assay [1] stood at 7%; in assay [2], 10%.
